The values that follow come from patent EP2616456B1, “NUCLEAR EXPORT INHIBITORS” (Universitätsmedizin der Johannes Gutenberg-Universität Mainz, priority 2010, dated 2012).

The subject of one data set is RevNES-biosensor. In words: RevNES-biosensor translocation (NES-mediated nuclear export) in living HeLa cells, fluorescence microscopy. The conditions noted are these: for Cellular localization of green fluorescent RevNES-biosensor: HeLa. In kind it is cell-based. The procedure: The activity of compounds C3, C5 and C24 to inhibit NES-mediated nuclear export in living cells was analyzed as described in Fetz et al., 2009 using living HeLa (cervix carcinoma), FaDu (head and neck cancer), MDA-MB231 (mammacarcinoma) and SW480 cells (colon cancer) which transiently expressed the RevNES-biosensor. The RevNES-biosensor is a fusion protein composed of (from N to C terminus) the SV40 large T-antigen nuclear localization signal (NLS), glutathion-S-transferase (GST), green fluorescent protein (GFP) and the nuclear export signal (NES) of the HIV-1 (human immunodeficiency virus) Rev protein (RevNES).
The cells of the control were treated with a corresponding amount of DMSO only. The cellular localization of RevNES-biosensor was monitored by fluorescence microscopy. […] Maximum of cellular accumulation was observed after 1h (C24), after 2h (C3) and after 5h (C5), respectively. […] Thus, the inhibitory activity of C3 and C24 (reversible) but not of C5 (irreversible) was reversed after 24h. Table 1: Cellular localization of green fluorescent RevNES-biosensor
Table 3: Cellular localization of green fluorescent RevNES-biosensor
(§1) IC50 value corresponds to compound concentration reducing HeLa cell viability by 50%. Topt is the time point post treatment when maximum nuclear export inhibition was observed by fluorescence microscopy. Table 4: Functional characteristics of nuclear export inhibitors

Another data set deals with Survivin. Briefly: Nuclear export of Survivin-GFP fusion transiently expressed in HeLa cells. Type of data set: cell-based. To be noted: transient expression, 25µM. The procedure:
The activity of compounds to inhibit the export of the oncologically relevant protein Survivin as well as of the HIV-1 Rev protein was analyzed.
Nuclear export of Survivin is crucial for its tumor promoting cytoprotective activity (Engels et al., 2007; Knauer et al., 2007a; Knauer et al., 2007b).

The test system of another data set is HIV-1 Rev protein. Briefly: Nuclear export of HIV-1 Rev-GFP in actinomycin D treated HeLa cells. To be noted: 25µM. In kind it is cell-based. An excerpt:
The HIV-1 Rev protein transports unspliced and incompletely spliced viral RNAs from the nucleus into the cytoplasm (Stauber et al., 1995). As such, Rev's export function is crucial for viral replication and AIDS development (Pavlakis and Stauber, 1998; Stauber et al., 1995).

For another data set, the system named is HeLa cells. In words: Cell viability (CellTiter-Glo) and cell death, HeLa. The conditions noted are these: Homo sapiens; compound concentration reducing HeLa cell viability by 50%. Type of data set: cell-based. The procedure:
To test the anti-cancer activity of the compounds, several cancer cell lines, currently used as models for different epithelial cancers and leukemias, were treated with the indicated inhibitors. […] Every 24h, the cell culture medium was replaced by fresh compound-containing medium. 72h post treatment, cell were analyzed by adding 100µl CellTiter-Glo® assay reagent (Promega). Luminescence was measured with a LuminoskanAscent device (ThermoScientific). Cells treated with a corresponding amount of DMSO only were use as a control. The luminescence (equals cell viability) of said control was set to 100%.
as §1
It was assessed whether the export inhibitors also affect the viability of non-malignant human cells, precluding their potential (pre)clinical use. 10^3 freshly isolated non-malignant primary human fibroblasts (HTF-8) or HeLa cells/well were seeded and 24h later treated with the indicated compounds (final concentration: 100µM). Every 24h cell culture medium was replaced by freshly prepared compound-containing medium. 72h post treatment the cells were analyzed by adding 100µl CellTiter-Glo® assay reagent, and luminescence measured with a LuminoskanAscent (ThermoScientific). Cells treated with DMSO only were used as a control. The fluorescence measured (equals cell viability) with said control was set to 100%.
On the technique in general: ATP-based viability assays read luminescence as a measure of living cells.

The subject of a further data set is HTF-8. Briefly: Viability (CellTiter-Glo) and cell death of non-malignant primary fibroblasts HTF-8. To be noted: HTF-8 non-malignant primary human fibroblasts, 100µM, 72h. Type of data set: cell-based. The protocol: It was assessed whether the export inhibitors also affect the viability of non-malignant human cells, precluding their potential (pre)clinical use. […] Every 24h cell culture medium was replaced by freshly prepared compound-containing medium. 72h post treatment the cells were analyzed by adding 100µl CellTiter-Glo® assay reagent, and luminescence measured with a LuminoskanAscent (ThermoScientific). Cells treated with DMSO only were used as a control. The fluorescence measured (equals cell viability) with said control was set to 100%.

The next data set concerns the target human CRM1 (Crm1-HA) (Homo sapiens, UniProt O14980). Briefly: In vitro pull-down of Crm1-HA with GST-SurvivinNES-GFP beads. To be noted: preincubation 400nM, 30min at 4°C. Type of data set: binding. The procedure:
The binding of LMB and of compounds C3 and C5 to CRM1 was examined by in vitro pull-down assays as described by Stauber et al., 2006. Briefly, in vitro coupled transcription/translation was performed using the TNT reticulocyte lysate system (Promega, Madison, WI, USA) supplemented with methionine (Promega, Madison, WI, USA) and plasmid pCrm1_HA (1µg), encoding a hemagglutinin epitope-tagged version of human CRM1 (Crm1-HA), as the template. Equal amounts of the Crm1-HA TNT reaction were preincubated with either DMSO (negative control; 0.1%), LMB (400nM, final concentration), C3 (1 mM; final concentration) or C5 (1mM; final concentration) in binding-buffer containing 5mM MgCl2 (AppliChem, Darmstadt, Germany), 2mM GTP (PEQLAB, Erlangen, Germany), 50mM Hepes pH 7.9 (AppliChem, Darmstadt, Germany), 200mM KCI (AppliChem, Darmstadt, Germany), 0.4% Tween 20 (AppliChem, Darmstadt, Germany), supplemented with complete protease inhibitor cocktail (Roche, Mannheim, Germany) for 30min at 4°C. Subsequently, GST-Sepharose beads loaded with 25µg recombinant GST-SurvivinNES-GFP and 5µg GST-RanQ96L were added to each drug-treated TNT reaction. Recombinant GST-SurvivinNES-GFP and GST-RanQ96L were purified from bacteria as described by Stauber et al., 2006. Pull-down was performed for 4h at 4°C in a rotating wheel. Samples were then centrifuged (3500rpm, 1min, 4°C) to recover the GST-SurvivinNES-GFP beads with bound Crm1-HA. Beads were washed three times with binding-buffer (500µl each washing step, 3500rpm, 1min, 4°C). Finally, bound proteins were eluted by adding 25µl 2xSDS-sample buffer (250mM Tris-HCl pH 6.8; 2% w/v SDS, 20% glycerol, 2% β-mercaptoethanol, 0.002% w/v bromophenol blue) and incubating at 95°C for 2min. Samples were separated by SDS-gelelectrophoresis and analyzed by immunoblot analysis as described by Stauber et al., 2006. Crm1-HA was detected with HA specific antibodies (MMS-101R, Covance, New Jersey, USA). GFP served as the loading control and was visualized with GFP specific antibodies (sc-8334, Santa Cruz Biotechnology, Heidelberg, Germany).

“Also recorded” adds a separate entry of the source.

Chain of human CRM1 (Crm1-HA) (O14980 whole entry): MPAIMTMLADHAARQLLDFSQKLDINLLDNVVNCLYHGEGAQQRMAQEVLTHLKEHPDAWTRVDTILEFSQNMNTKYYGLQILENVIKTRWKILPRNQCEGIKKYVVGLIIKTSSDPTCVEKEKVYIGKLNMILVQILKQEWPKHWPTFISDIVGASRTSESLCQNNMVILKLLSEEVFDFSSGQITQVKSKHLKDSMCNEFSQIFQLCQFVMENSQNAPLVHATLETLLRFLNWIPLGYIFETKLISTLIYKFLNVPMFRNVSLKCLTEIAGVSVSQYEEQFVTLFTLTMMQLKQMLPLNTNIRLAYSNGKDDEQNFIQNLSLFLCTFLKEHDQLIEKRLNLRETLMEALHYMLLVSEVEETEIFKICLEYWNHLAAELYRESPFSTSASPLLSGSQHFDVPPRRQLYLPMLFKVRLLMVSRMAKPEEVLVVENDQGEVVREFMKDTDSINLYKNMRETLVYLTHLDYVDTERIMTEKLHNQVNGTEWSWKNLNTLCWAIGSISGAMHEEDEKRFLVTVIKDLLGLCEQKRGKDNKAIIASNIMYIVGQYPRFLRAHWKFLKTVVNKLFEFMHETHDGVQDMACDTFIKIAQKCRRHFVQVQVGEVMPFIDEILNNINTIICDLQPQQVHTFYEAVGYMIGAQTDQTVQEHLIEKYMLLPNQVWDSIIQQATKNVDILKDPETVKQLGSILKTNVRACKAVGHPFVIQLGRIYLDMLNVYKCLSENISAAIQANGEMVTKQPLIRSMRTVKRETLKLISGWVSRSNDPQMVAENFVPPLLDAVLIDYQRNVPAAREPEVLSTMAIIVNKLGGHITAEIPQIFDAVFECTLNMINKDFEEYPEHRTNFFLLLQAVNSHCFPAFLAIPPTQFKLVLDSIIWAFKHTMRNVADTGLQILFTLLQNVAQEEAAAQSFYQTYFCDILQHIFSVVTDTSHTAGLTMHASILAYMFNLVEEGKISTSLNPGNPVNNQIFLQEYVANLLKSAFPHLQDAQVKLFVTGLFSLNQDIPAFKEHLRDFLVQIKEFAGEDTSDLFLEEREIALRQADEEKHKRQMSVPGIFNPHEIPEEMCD

As for `NC(=O)c1c(NC(NC(=O)c2cccc(F)c2)(C(F)(F)F)C(F)(F)F)sc2c1CCC2` [Compound C24, 2-[[1,1,1,3,3,3-hexafluoro-2-[(3-fluorobenzoyl)amino]propan-2-yl]amino]-5,6-dihydro-4H-cyclopenta[b]thiophene-3-carboxamide], the “Cellular localization of green fluorescent RevNES-biosensor” value in the data set with RevNES-biosensor (25µM, T = 24h) is reported as “predominantly localized in the cytoplasm”; in the data set on RevNES-biosensor (25µM, at Topt), “nuclear accumulation; also recorded: nucleus”. Further, the “Topt at 25µM” value in the data set with RevNES-biosensor (Table 4, 25µM, fluorescence microscopy) is recorded as “∼1h”. The “Mode of Inhibition” value in the data set on RevNES-biosensor (reversal of export inhibition after 24h, C5: 5-12h observation) is given as “reversible”. The “Localization of Survivin-GFP fusion (nuclear export of Survivin)” value in the data set with Survivin was “accumulated in the nucleus”. In addition, in the data set on HIV-1 Rev protein, the “Localization of HIV-1 Rev-GFP (nuclear export of HIV-1 Rev protein)” value is “restored the nuclear accumulation”. The IC50 (in general, the concentration that inhibits the measured activity by half) in the data set on HeLa cells was determined as 31 µM. Further, the “viability compared to the control” value in the data set with HTF-8 is “do not affect viability”.

Turning to `CCC(=C/[C@H](C)C/C=C/C(C)=C/[C@@H](C)C(=O)[C@@H](C)[C@H](O)[C@@H](C)C/C(C)=C/C(=O)O)/C=C/[C@@H]1OC(=O)C=C[C@@H]1C` [LMB, leptomycin B, reference compound], the “interaction of Crm1-HA with the export substrate GST-SurvivinNES-GFP” value on human CRM1 (Crm1-HA) was “prevented the interaction”.
